Several values for one entry are separate records, joined by “and”; a condition that tells them apart may be missing. Equal entries are not always repeated.
Experiments:
Format in all cases: in vivo
nursery pigs [1] = assay: Standardized total tract digestibility (STTD) of Ca and P in nursery pigs, fecal grab sampling day 24 to 26, titanium dioxide marker; conditions: for STTD of Ca / STTD of P: ZnO 2000 ppm Zn vs Zn(HMTBA)2 100 ppm Zn, nursery phase 2
Source text: (§1) A total of 288 weaning barrows [TR-4×PIC C-22, initial body weight (BW)=5.71±0.71 kg] were allotted to 1 of 8 dietary treatments according to randomized complete block design. Pigs were blocked by initial body weight. The study started from weaning (day 0) to day 42 post-weaning. Three-phase feeding program was used in this study, in which day 0 to 14, day 15 to 28, and day 29 to 42 were considered as nursing phase 1, 2, and 3, respectively. A basal diet for each phase was formulated to meet the energy and nutrient requirement for different stages of pigs according to previously published recommendation,^1 with the exception of P [0.15% reduction of standardized total tract digestible (STTD) P] and Ca (adjusted according to the fixed ratio of Ca/STTD P=2.15). Eight experimental diets were formulated based on basal diet supplemented with phytase (0 or 500 FTU/kg), Zn sources (2000 ppm Zn from ZnO in phase 1 and 2, 100 ppm Zn from ZnO in phase 3; 100 ppm Zn from Zn(HMTBA)2 from phase 1 to 3) and Cu sources (150, 80, 80 ppm Cu from CuSO4 or Cu(HMTBA)2 in phase 1, 2, and 3, respectively) in a 2×2×2 factorial treatment design. Titanium dioxide at 0.4% was included in phase 2 diets to measure Ca and P digestibility.
Fresh fecal samples were collected via grab sampling from each pig per pen at least twice per day from day 24 to 26. Fecal samples collected from the same pen during the 3 days were pooled together, and a subsample was placed inside a large oven set at 65° C. Oven dried fecal samples were stored at room temperature until analysis for dry matter (DM), Ca, P, and titanium (Ti).
The apparent total tract digestibility (ATTD) coefficient for Ca and P in each treatment was calculated using the following formula:
ATTD of Ca, %=[1−(Cafeces/Cadiet)×(Mdiet/Mfeces)]×100 (Equation 1)
ATTD of P, %=[1−(Pfeces/Pdiet)×Mdiet/Mfeces)]×100 (Equation 2) where Cafeces and Cadiet represented Ca concentrations (g/kg) in feces and diet DM, respectively; Pfeces and Pdiet represented P concentrations (g/kg) in feces and diet DM; Mdiet and Mdigesta represent the marker concentrations (g/kg) in diet and feces DM, respectively.
The standard total tract digestibility (STTD) of Ca was calculated according to the following equation:
STTD of Ca, %=[ATTD of Ca+(basal ECaLend/Cadiet)×100] (Equation 3) where Cadiet represented Ca concentrations (g/kg) in diet DM, respectively; basal ECaLend represented basal endogenous loss of Ca which was approximately 330 mg/kg DMI.
The standard total tract digestibility (STTD) of P was calculated according to the following equation:
STTD of P, %=[ATTD of P+(basal EPLend/Pdiet)×100] (Equation 4) where Pdiet represented P concentrations (g/kg) in diet DM, respectively; basal EPLend represented basal endogenous loss of P which was approximately 190 mg/kg DMI.
(§2) SAS 9.4 (SAS Inst. Inc., Gary, N.C.) was used for all data analysis. Pen served as the experimental unit. The LSMEANS statement was be used to calculate the least square means. Tukey-Kramer adjustment was used for multiple comparisons of the least square means. Pooled SEM will be calculated for each measurement. A probability of P 0.05 will be considered as significant and 0.05<P≤0.10 will be declared as a trend. Mineral sources (Zn and Cu), phytase and their interactions were considered as the main effect, while block was considered as the random effect.

nursery pigs [2] = assay: Gain to feed ratio during d 15 to 28 in nursery pigs; conditions: for G:F (d 15 to 28): 80 ppm Cu
Source text: as §1, §2

nursery pigs [3] = assay: Bone (third metacarpal) Ca, P and ash concentrations in nursery pigs on day 42; conditions: for Bone Ca (DM basis) / Bone P (DM basis) / Bone ash (DM basis): day 42
Source text: as §1
On day 42, 2 pigs from each pen were euthanized to collect the right front legs. The third metacarpal bone from each right front leg was used to determine DM, Ca, P, and ash concentrations.
as §2

[4] = both supplemented at 80 ppm, Cu source main effect

SMILES | STTD of Ca (nursery pigs [1]; no phytase) | STTD of P (nursery pigs [1]; no phytase) | STTD of Ca (nursery pigs [1]; with phytase 500 FTU/kg) | STTD of P (nursery pigs [1]; with phytase 500 FTU/kg) | Absolute increase of STTD of Ca compared with ZnO (nursery pigs [1]; with phytase supplementation) | Absolute increase of STTD of P compared with ZnO (nursery pigs [1]; with phytase supplementation) | Absolute increase of STTD of Ca compared with ZnO (nursery pigs [1]; without phytase) | Absolute increase of STTD of P compared with ZnO (nursery pigs [1]; without phytase) | G:F (d 15 to 28) (nursery pigs [2]; no phytase) | G:F (d 15 to 28) (nursery pigs [2]; with phytase 500 FTU/kg) | Bone Ca (DM basis) (nursery pigs [3]; no phytase) | Bone P (DM basis) (nursery pigs [3]; no phytase) | Bone ash (DM basis) (nursery pigs [3]; no phytase) | Bone Ca (DM basis) (nursery pigs [3]; with phytase 500 FTU/kg) | Bone P (DM basis) (nursery pigs [3]; with phytase 500 FTU/kg) | Bone ash (DM basis) (nursery pigs [3]; with phytase 500 FTU/kg) | Difference to CuSO4 in gain to feed ratio (G:F) during day 15 to 28 (nursery pigs [2]; [4]) | Difference to CuSO4 in bone Ca, P and ash (nursery pigs [3]; [4])
CSCCC(O)C(=O)[O-].CSCCC(O)C(=O)[O-].[Zn+2] (stereo not drawn) [Zn(HMTBA)2] | 53.30% | 32.65% | 65.63% | 46.36% | 6.45% | 12.68% | 4.81% | 29.98% |  |  |  |  |  |  |  |  |  | 
O=S(=O)([O-])[O-].[Cu+2] [CuSO4, reference compound] |  |  |  |  |  |  |  |  | 0.76 g/g | 0.80 g/g | 13.04% | 6.65% | 36.69% | 14.14% | 7.38% | 40.41% |  | 
[O]=[Zn] [ZnO, reference compound] | 48.48% and 48.49% | 2.67% | 59.18% | 33.68% |  |  |  |  |  |  |  |  |  |  |  |  |  | 
CSCCC(O)C(=O)[O-].CSCCC(O)C(=O)[O-].[Cu+2] (stereo not drawn) [Cu(HMTBA)2] |  |  |  |  |  |  |  |  | 0.75 g/g | 0.84 g/g | 12.55% | 6.44% | 35.95% | 14.89% | 7.81% | 41.97% | no significant differences | no significant differences
